The values that follow come from US8546435B2, “Triazole derivatives with improved receptor activity and bioavailability properties as ghrelin antagonists of growth hormone secretagogue receptors” (AEterna Zentaris GmbH, priority 2010, dated 2013).

Broadly, the IC50 is the midpoint of a concentration-inhibition curve. A word on the EC50: it is the midpoint of the concentration-response curve.

Each structure is given as a SMILES string. Read-outs that look alike come from different tables or passages of the source.

A short description of data set [1]: CaCo-2 permeability assay. As to conditions: human; for Papp A→B at 2 h: a to b, read-out: CaCo-2 Assay Papp ab; for Papp A→B at 2 h / Papp B→A at 2 h: 3 or 5 μM, 2 hours at 37° C.; for Papp B→A at 2 h: b to a, read-out: CaCo-2 Assay Papp ba; for efflux ratio at 2 h: read-out: CaCo-2 Assay ba/ab. Format: in vitro ADME. As to the method:
For the CaCo-2 permeability assay 80.000 CaCo-2 cells (ATCC HTB-37) were seeded in DMEM supplemented with 10% FCS, 1% Penicillin/Streptomycin and 1% non-essential amino acids per 24 well transwell plate (Corning 3397) and were grown for 21 days by changing the media every second day. On day 21 the medium was replaced by HBSS buffer (Invitrogen #14065) supplemented with 0.25% and 1% BSA for the donor and acceptor compartment, respectively. The compounds were added to the respective donor compartment in a concentration of 3 or 5 μM and were incubated for 2 hours at 37° C. The respective compound concentrations were determined by LC-MS analytics using an API 2000. Data analysis was performed as described by Sun and Pang 2008, Drug Metabolism and Disposition 36, 102-123.
(Passage across Caco-2 layers is used to estimate intestinal permeability.)

Data set [2] can be described thus: Stability in liver microsomes. The format is in vitro ADME, human. Conditions: @37° C./1 mg/ml Liver Microsomes, 10 μM. As to the method: (§1) Metabolic stability in liver microsomes of different species (in the presence of NADPH, 1 mg/ml microsomal protein) was evaluated at 37° C. over time in triplicates at a test concentration of 10 μM. Loss of parent compound is measured by an HPLC-based UV detection method. For prediction of rat hepatic clearance half-lives (t1/2) were fitted from first-order rate constant k (min^−1) obtained from the slope of time versus In % remaining.

Data set [3] is described as follows: Stability in liver microsomes. The format is in vitro ADME, rat. As to conditions: @37° C./1 mg/ml Liver Microsomes, 10 μM. The protocol:
as §1
Background: Liver microsomes are a subcellular fraction often used to study metabolism.

In data set [4] the target is MDR-1 (P-glycoprotein, Pgp) (Homo sapiens (Human), UniProt P08183). Briefly: Inhibition of MDR1 ATPase (Pgp-Glo assay, SF9 membrane preparations). The format is biochemical. As to the method:
For detection of MDR-1 (P-glycoprotein, Pgp) ATPase activity commercially available membrane preparations of MDR-1 overexpressing SF9 insect cells (SB-MDR1-Sf9-ATPase Membrane; 2.5 mg/500 μL; Solvo/tebu-bio #168SB-MDR1-Sf9-ATPase) were used. Since transport by MDR-1 is ATP-dependent, ATP consumption indicates transport activity of MDR-1. ATP consumption is detected as a decrease in luminescence from a second reaction with a recombinant firefly luciferase by using the Pgp-Glo™ Assay Kit (Promega # V3591).

Data set [5] has as its target Mouse Ghrelin Receptor (GHS-R 1A) (Mus musculus (Mouse), UniProt Q99P50). Briefly: Calcium release, antagonist. The format is cell-based. The source says:
(§2) Mouse LTK-cells (ATCC CCL-1.3) were stably transfected with a plasmid containing the CMV minimal promoter (CMVmin) linked to three cAMP response elements (CRE) followed by a luciferase reporter gene. Based on this parental cell line, single cell clones stably overexpressing the human, rat or mouse GHS-R 1A have been established and characterized with respect to suitability for the different assay formats.
(§3) For determination of calcium release the respective cell line was loaded with Fluo-4 NW Calcium Assay Kit (Moleculare Probes/Invitrogen # F10741) for 80 min @ 37° C. After 15 minutes of preincubation with different concentrations of the test compounds ghrelin was added and the signal was monitored for 60 seconds by a FlexStation3 microplate reader (Molecular Devices).
(§4) IC50 values were determined by using the GraphPad Prism analysis program (GraphPad Software).
(§5) In the following table 1 results obtained for selected compounds of the invention are presented in comparison to compound 50 disclosed in WO07/020,013. Values given are either single measurements or mean values of up to nine independent experiments performed in duplicate (binding) or quadruplicate (functional assays) measurements.

Data set [6] deals with Rat Ghrelin Receptor (GHS-R 1A) (Rattus norvegicus (Rat), UniProt O08725). Briefly: Calcium release, antagonist. The format is cell-based.
From the text: as §2, §3, §4, §5

For the next data set, the target named is hERG channel (Homo sapiens (Human), UniProt Q12809). Briefly: Predictor hERG Fluorescence Polarization Assay. Format: binding. The source says:
The Predictor™ hERG Fluorescence Polarization Assay (Invitrogen, Karlsruhe, GER) determines whether test compounds block the hERG channel [Piper, D. R. et al., Assay Drug Dev Technol. 2008, 6(2):213-23]. The assay uses a membrane fraction containing hERG channel protein (Predictor™ hERG Membrane) and a high-affinity red fluorescent hERG channel ligand, or “tracer” (Predictor™ hERG Tracer Red), in a homogenous, fluorescence polarization (FP)-based format. Compounds that bind to the hERG channel protein (competitors) are identified by their ability to displace the tracer, resulting in a lower fluorescence polarization. The assay was performed according to guidelines of the manufacturer

A short description of data set [7]: Stability in liver microsomes. Format: in vitro ADME, mouse. Conditions: 37° C./1 mg/ml Liver Microsomes, 10 μM. As to the method: as §1
Another data set has as its target CYP3A4 (Homo sapiens (Human), UniProt P08684). The data set is described as follows: CYP3A4 inhibition in human liver microsomes, direct and metabolism-dependent. Format: in vitro ADME. The protocol:
Direct and metabolism-dependent inhibition of CYP enzymes are assessed with specific marker substrates by a HPLC-based UV detection method in human liver microsomes. Incubations are carried out as doublets with final concentrations ranging from 0.01 to 200 μM (30 min, 37° C.). Metabolism-dependent inhibition was assessed by incubation for 30 minutes in the presence of NADPH prior to the addition of marker substrate to allow the generation of metabolites. Percent inhibition is plotted against concentration to calculate or extrapolate IC50 values from the sigmoid curve.

The target of data set [8] is T1, Human Ghrelin Receptor (GHS-R 1A) (Homo sapiens (Human), UniProt Q92847). The data set is described as follows: Competitive binding, iodinated ghrelin tracer, intact LTK-cells overexpressing GHS-R 1A. Conditions: 60 min at 37° C.
From the text: as §2
For receptor competitive binding studies, iodinated ghrelin was used as a tracer at conditions of about 80% saturation binding. Different concentrations of the test compounds were analyzed for displacement of the tracer. For this purpose, the suspension of intact cells plus tracer mix and different test compound concentrations was layered on top of silicon/paraffin oil, incubated for 60 min at 37° C. and subjected to centrifugation. After freezing in liquid nitrogen the cell pellets were separated from the supernatant by cutting the tubes in the intermediate silicon/paraffin oil section and analyzed by γ-radiation analysis. The amount of unspecific binding was determined by including unlabeled ghrelin at 1 μM final concentration.
as §4
(§6) Values given are either single measurements or mean values of up to nine independent experiments performed in duplicate (binding) or quadruplicate (functional assays) measurements.

The target in data set [9] is T1, Human Ghrelin Receptor (GHS-R 1A). Briefly: CRE/Luc reporter gene assay, antagonist. The format is cell-based. Conditions: 6 h, 1 μM rolipram.
From the text: as §2
For the CRE/Luc reporter gene assay, the mouse LTK-cells stably expressing the human GHS-1RA and a luciferase reporter gene under the control of CRE elements and the CMV minimal promoter were incubated for 6 h with 1 μM rolipram in the presence of different concentrations of AEZS-130. Subsequently, cells were lysed and ATP bioluminescence was measured in the luminescence mode on FlexStation3 (Molecular Devices).
as §4, §6
(A reporter such as luciferase makes a cellular process visible.)

Data set [10] shares this target. Briefly: Calcium release, antagonist. The format is cell-based. As to conditions: 15 minutes preincubation, then ghrelin.
From the text: as §2, §3, §4, §6

Setting [11] is: marker substrate midazolam, 30 minutes preincubation with NADPH, read-out: CYP3A4 Inhibition Midazolam Preincubation EC50.
The mark [12] stands for this setting: marker substrate midazolam, direct inhibition, human liver microsomes, read-out: CYP3A4 Inhibition Midazolam EC50.
[13] abbreviates: 15 minutes preincubation, then ghrelin, read-out: Mouse Ghrelin Receptor Antagonist Calcium Release IC50.
Where [14] appears, read: 15 minutes preincubation, then ghrelin, read-out: Rat Ghrelin Receptor Antagonist Calcium Release IC50.

T1 sequence (Q92847 whole entry): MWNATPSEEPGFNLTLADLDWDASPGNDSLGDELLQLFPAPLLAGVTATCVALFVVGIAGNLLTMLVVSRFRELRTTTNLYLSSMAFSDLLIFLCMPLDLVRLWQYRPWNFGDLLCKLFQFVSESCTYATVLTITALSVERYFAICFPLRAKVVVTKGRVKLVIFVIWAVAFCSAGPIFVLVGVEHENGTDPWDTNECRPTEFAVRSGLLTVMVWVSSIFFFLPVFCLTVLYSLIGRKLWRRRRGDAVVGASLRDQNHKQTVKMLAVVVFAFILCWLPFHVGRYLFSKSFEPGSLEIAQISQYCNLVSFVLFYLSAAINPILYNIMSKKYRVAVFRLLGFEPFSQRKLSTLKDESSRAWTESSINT
CYP3A4, sequence (P08684 whole entry): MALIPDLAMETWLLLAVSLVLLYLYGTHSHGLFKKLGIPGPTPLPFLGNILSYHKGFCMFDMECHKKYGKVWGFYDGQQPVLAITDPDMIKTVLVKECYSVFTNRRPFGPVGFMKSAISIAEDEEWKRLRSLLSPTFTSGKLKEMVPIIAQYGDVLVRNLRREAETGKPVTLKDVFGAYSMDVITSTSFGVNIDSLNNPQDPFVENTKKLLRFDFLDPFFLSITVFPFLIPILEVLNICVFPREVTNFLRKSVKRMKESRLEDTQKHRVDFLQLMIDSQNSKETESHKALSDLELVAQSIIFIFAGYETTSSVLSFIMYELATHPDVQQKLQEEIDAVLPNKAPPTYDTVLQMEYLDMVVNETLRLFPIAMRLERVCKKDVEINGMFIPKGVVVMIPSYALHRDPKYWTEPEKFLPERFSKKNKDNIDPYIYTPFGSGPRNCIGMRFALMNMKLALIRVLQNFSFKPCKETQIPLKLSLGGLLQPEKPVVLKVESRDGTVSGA
Rat Ghrelin Receptor (GHS-R 1A), sequence (O08725 whole entry): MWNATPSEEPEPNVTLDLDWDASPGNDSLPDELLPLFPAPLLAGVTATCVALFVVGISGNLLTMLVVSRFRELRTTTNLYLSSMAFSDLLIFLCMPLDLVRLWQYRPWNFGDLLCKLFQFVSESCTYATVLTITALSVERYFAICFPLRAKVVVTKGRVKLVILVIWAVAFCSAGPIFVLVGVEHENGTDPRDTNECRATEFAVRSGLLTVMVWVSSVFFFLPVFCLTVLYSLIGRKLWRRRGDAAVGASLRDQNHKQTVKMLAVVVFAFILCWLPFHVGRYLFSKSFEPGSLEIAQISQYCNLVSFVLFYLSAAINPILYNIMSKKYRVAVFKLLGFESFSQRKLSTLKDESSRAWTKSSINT
Mouse Ghrelin Receptor (GHS-R 1A), sequence (Q99P50 whole entry): as the sequence (O08725 whole entry) above, with P30S, A249S counted along it
MDR-1 (P-glycoprotein, Pgp), sequence (P08183 whole entry): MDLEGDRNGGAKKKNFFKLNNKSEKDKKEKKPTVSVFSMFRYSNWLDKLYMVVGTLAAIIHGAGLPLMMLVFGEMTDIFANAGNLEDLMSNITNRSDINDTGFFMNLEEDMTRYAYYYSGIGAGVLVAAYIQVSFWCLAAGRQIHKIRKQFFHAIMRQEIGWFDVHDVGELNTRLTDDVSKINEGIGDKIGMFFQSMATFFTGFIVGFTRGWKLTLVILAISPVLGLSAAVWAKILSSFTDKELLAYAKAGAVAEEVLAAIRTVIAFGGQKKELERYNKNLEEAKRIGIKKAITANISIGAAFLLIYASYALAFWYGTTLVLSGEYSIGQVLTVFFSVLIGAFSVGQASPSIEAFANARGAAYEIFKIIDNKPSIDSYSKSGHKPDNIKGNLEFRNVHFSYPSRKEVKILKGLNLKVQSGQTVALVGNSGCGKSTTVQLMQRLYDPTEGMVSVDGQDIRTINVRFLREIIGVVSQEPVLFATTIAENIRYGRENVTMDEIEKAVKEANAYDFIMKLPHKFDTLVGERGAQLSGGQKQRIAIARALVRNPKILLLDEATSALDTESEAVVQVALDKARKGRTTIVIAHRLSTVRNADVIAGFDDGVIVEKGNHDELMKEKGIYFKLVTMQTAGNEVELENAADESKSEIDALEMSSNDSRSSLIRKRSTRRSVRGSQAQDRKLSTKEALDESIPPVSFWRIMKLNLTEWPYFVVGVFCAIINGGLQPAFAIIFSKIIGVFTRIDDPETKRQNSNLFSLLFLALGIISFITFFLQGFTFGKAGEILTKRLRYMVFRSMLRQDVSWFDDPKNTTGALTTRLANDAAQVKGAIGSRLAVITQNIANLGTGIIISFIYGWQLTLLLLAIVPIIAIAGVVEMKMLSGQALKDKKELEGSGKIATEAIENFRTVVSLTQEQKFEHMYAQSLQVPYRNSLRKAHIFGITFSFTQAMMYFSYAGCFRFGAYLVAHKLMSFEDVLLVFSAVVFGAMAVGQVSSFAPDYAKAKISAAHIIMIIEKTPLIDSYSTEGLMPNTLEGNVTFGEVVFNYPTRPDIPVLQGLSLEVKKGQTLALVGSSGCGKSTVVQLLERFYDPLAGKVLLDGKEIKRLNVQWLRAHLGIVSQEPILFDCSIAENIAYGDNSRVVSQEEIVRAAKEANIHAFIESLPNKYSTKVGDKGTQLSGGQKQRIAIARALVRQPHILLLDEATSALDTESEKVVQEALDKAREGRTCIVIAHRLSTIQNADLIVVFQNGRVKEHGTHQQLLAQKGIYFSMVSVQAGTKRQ
hERG channel, sequence (Q12809 whole entry): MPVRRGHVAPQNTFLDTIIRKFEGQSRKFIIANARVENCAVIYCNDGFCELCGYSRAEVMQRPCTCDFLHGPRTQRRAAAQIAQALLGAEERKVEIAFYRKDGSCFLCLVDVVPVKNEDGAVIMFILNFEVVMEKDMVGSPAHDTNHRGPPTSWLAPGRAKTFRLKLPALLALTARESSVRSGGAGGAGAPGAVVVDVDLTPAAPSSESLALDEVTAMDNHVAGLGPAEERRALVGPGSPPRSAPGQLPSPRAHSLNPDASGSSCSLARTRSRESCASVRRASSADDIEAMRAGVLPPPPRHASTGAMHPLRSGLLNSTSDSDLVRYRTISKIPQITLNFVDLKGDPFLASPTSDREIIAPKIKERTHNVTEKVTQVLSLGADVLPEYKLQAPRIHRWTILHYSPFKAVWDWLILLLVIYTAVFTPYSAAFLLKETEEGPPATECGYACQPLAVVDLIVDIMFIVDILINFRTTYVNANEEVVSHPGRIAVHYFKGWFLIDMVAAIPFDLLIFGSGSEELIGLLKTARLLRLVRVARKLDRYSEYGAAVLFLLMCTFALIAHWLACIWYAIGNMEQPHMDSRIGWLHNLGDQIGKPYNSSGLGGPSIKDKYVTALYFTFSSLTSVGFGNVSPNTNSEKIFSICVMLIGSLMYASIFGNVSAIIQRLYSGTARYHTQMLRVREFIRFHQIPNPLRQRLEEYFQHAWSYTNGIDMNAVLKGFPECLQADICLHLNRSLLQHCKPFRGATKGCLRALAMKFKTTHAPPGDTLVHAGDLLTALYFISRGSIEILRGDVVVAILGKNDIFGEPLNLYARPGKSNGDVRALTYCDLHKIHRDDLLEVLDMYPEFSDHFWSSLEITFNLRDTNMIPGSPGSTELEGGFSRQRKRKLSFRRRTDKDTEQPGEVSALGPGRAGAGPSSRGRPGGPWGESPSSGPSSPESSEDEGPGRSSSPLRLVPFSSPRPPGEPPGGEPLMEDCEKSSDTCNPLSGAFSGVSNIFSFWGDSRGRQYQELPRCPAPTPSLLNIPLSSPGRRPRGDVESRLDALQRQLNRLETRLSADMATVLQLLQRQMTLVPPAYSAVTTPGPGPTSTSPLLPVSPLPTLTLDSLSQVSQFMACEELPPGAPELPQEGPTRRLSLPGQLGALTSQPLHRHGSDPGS

For `COc1ccc(Cn2c([C@@H](Cc3ccccc3)NC(C)=O)nnc2[C@@H](Cc2c[nH]c3ccccc23)NC(=O)c2ccccn2)cc1.O=C(O)C(F)(F)F` [Cpd 4, Pyridine-2-carboxylic acid [(R)-1-[5-((R)-1-acetylamino-2-phenyl-ethyl)-4-(4-methoxy-benzyl)-4H-[1,2,4]triazol-3-yl]-2-(1H-indol-3-yl)-ethyl]-amide], in data set [1], the Papp A→B at 2 h was found to be 1.41 ×10⁻⁶ cm/s, the Papp B→A at 2 h is 25.4 ×10⁻⁶ cm/s and the efflux ratio at 2 h was found to be 18. Further, the “Stability in Liver Microsomes Human % Remaining after 1 h Incubation” value in [2] came to 9.1%. In addition, the “Stability in Liver Microsomes Rat % Remaining after 1 h Incubation” value in [3] turned out to be 46.7%. In addition, in [4], the “Inhibition of MDR1 ATPase EC50” value is recorded as “no full dose”. In [5], the IC50 turned out to be 0.0687 µM. The IC50 in [6] worked out at 0.239 µM. For the same compound, the “hERG Predictor EC50” value on hERG channel is listed as “no full dose”. In data set [7], the “Stability in Liver Microsomes Mouse % Remaining (@30 min)” value was found to be 0.0%. The EC50 on CYP3A4 (setting [11]) amounted to 2.3 µM. Moreover, the concentration for a half-maximal effect (EC50) on CYP3A4 (setting [12]) stood at 3.9 µM.
Take `COc1ccc(Cn2c([C@@H](Cc3ccccc3)NC=O)nnc2[C@@H](Cc2c[nH]c3ccccc23)NC(=O)c2ccccn2)cc1.O=C(O)C(F)(F)F` [Cpd 5, Pyridine-2-carboxylic acid [(R)-1-[5-((R)-1-formylamino-2-phenyl-ethyl)-4-(4-methoxy-benzyl)-4H-[1,2,4]triazol-3-yl]-2-(1H-indol-3-yl)-ethyl]-amide]: in data set [1], the Papp A→B at 2 h came out at 1.26 ×10⁻⁶ cm/s. For the same compound, the Papp B→A at 2 h in data set [1] was 16.8 ×10⁻⁶ cm/s. In addition, the efflux ratio at 2 h in data set [1] is 13.3. Further, the “Stability in Liver Microsomes Human % Remaining after 1 h Incubation” value in data set [2] was determined as 0%. The “Stability in Liver Microsomes Rat % Remaining after 1 h Incubation” value in data set [3] came to 41.9%. The IC50 in data set [8] is 0.0034 µM; in [5] (setting [13]), 0.0893 µM; in [6] (setting [14]) it was 0.29 µM; in data set [9] it was 0.0083 µM; in data set [10] it was 0.0031 µM. The “Inhibition of MDR1 ATPase EC50” value in data set [4] is reported as “no inhibition”. For the same compound, on hERG channel, the “hERG Predictor EC50” value is listed as “no full dose”. Also, the “Stability in Liver Microsomes Mouse % Remaining (@30 min)” value in data set [7] is given as 0.0%. In addition, the half-maximal effective concentration (EC50) on CYP3A4 (setting [11]) is 1.2 µM; at CYP3A4 (setting [12]) it was 3.8 µM.
For `COc1ccc(Cn2c(CCc3ccccc3)nnc2[C@@H](Cc2c[nH]c3ccccc23)NC(=O)OCC(C)C)cc1.O=C(O)C(F)(F)F` [Cpd 17, {(R)-2-(1H-Indol-3-yl)-1-[4-(4-methoxy-benzyl)-5-phenethyl-4H-[1,2,4]triazol-3-yl]-ethyl}-carbamic acid isobutyl ester], the Papp A→B at 2 h in data set [1] came out at 22.4 ×10⁻⁶ cm/s. Moreover, the Papp B→A at 2 h in [1] was 10 ×10⁻⁶ cm/s. Also, the efflux ratio at 2 h in data set [1] came to 0.45. Also, the “Stability in Liver Microsomes Human % Remaining after 1 h Incubation” value in data set [2] is listed as 0%. Besides, the “Stability in Liver Microsomes Rat % Remaining after 1 h Incubation” value in [3] came to 24.8%. Further, the IC50 is 0.0086 µM in [8]; 0.607 µM in data set [5] (setting [13]); 0.925 µM in [6] (setting [14]); 0.0211 µM in data set [9]; 0.0314 µM in [10]. Moreover, the “Inhibition of MDR1 ATPase EC50” value in [4] is “no full dose”. In addition, the EC50 at hERG channel was 3.68 µM; at CYP3A4 (marker substrate testosteron, 30 minutes preincubation with NADPH, read-out: CYP3A4 Inhibition Testosteron Preincubation EC50), 2 µM; on CYP3A4 (marker substrate testosteron, direct inhibition, human liver microsomes, read-out: CYP3A4 Inhibition Testosteron EC50), 10.4 µM. The “Stability in Liver Microsomes Mouse % Remaining (@30 min)” value in data set [7] is 0.0%.
